In patent US20220280543A1, “DDX17 AND NLRC4 TARGETING FOR INFLAMMATORY DISEASES” (University of Virginia Patent Foundation, priority 2019, published 2022):

Assays:
caspase-1 = experiment: Alu RNA induced cleavage of caspase-1 precursor in BMDM; type: cell-based, mouse; conditions: Alu RNA transfection (FIG. 2)
Experimental: FIG. 2. SINE RNA induced NLRC4 phosphorylation (site S533) through protein Kinase C Delta. BMDM cell pre-treated with the LRRK2 Kinase inhibitor gsk2578215a (GSK; 5-(2-Fluoro-4-pyridinyl)-2-(phenylmethoxy)-N-3-pyridinyl-benzamide; CAS Number 1285515-21-0; Sigma-Aldrich, St. Louis, Mo., United States of America) or the PKC delta inhibitor Rottlerin (CAS Number 82-08-6; Sigma-Aldrich) at 2 μM or 5 μM, and treated with Alu RNA (SEQ ID NO: 86) transfection or transfection reagent alone (Mock). NLRC4 phosphorylation (P-NLRC4) and supernatant caspase-1 activation were detected by SDS-PAGE. […] PKC delta inhibitor, Rottlerin blocked Alu RNA-induced NLRC4 phosphorylation and caspase-1 activation. The p-NLRC4 and caspase-1 (p20) bands were indicated with black arrows.

NLRC4 [1] = experiment: Alu RNA induced NLRC4 oligomers in human RPE cells, native PAGE; type: cell-based; conditions: Alu RNA transfection vs mock (FIG. 24B)
Description: FIGS. 24A and 24B. Alu RNA (SEQ ID NO: 86) induced NLRC4 activation in human RPE cells. To test whether Alu RNA (SEQ ID NO: 86) induces NLRC4 activation in human RPE, we transfected human RPE with Alu RNA (SEQ ID NO: 86 at 100 pmol). FIG. 24A. Immunofluorescence staining on NLRC4 show Alu RNA (SEQ ID NO: 86) induced cytosolic NLRC4 punctate in hRPE cells. The NLRC4 aggregates induced by Alu RNA (SEQ ID NO: 86) are indicated by white arrows. FIG. 24B. Alu RNA (SEQ ID NO: 86) induced NLRC4 (p-NLRC4) phosphorylation and oligomerization. Loading control show by Actin. NLRC4 oligomers were detected by Tris-glycine native PAGE. […] The band of NLRC4 oligomers is indicated by black arrow.
(§1) Next, we asked whether Alu RNA (SEQ ID NO: 86) also triggered NLRC4 inflammasome activation in human RPE cells. We performed immunofluorescence staining experiments to examine whether Alu RNA (SEQ ID NO: 86) can induce NLRC4 speck formation in human RPE cells. We noticed punctate structures resembling specks of NLRC4 in human RPE cells in response to Alu RNA (SEQ ID NO: 86) treatment (FIG. 24A). […] We further investigated downstream events of NLRC4 inflammasome activation by studying NLRC4-induced ASC oligomerization, a critical step involved in caspase-1 cleavage. NLRC4 siRNA, when co-administered with Alu RNA (SEQ ID NO: 86), blocked ASC oligomerization in vitro (FIG. 25A) and RPE degeneration in vivo (FIG. 25B).

RPE degeneration = experiment: Alu RNA induced RPE degeneration in mice, fundus images and ZO-1 staining; type: in vivo; conditions: subretinal, WT mice (FIG. 26)
Experimental: FIGS. 25A and 25B. NLRC4 knockdown blocks Alu RNA (SEQ ID NO: 86) induced ASC oligomerization and RPE degeneration. Human RPE cell treated with siRNA target on NLRC4 (SMARTPOOL siRNA for NLRC4: CAACUGGGCUCCUCUGUAA; SEQ ID NO: 93) and NAIP (SMARTPOOL siRNA for NAIP: GUAAAGAGCUAUAUGGAUA; SEQ ID NO: 94), 24 hours later, treated with Alu RNA (SEQ ID NO: 86 at 100 pmol) FIG. 25A. […] The band of ASC oligomers was indicated by black arrow. […] The hyperdense areas due to the RPE degeneration in fundus images and ZO-1 disorganizations in RPE sheet are indicated by white arrows.
FIG. 26. […] Wilde type of C57/B6 mice were intravitreally injected with siRNA target on Ddx17 (siRNA for Ddx17: GGCUAGAUGUGGAAGAUGU; SEQ ID NO: 95), and two days later, Nlrc4^−/−, Naip1-6^−/−, mice and Ddx17 knockdown mice were subretinally injected with Alu RNA (SEQ ID NO: 86). […] The hyperdense areas due to the RPE degeneration in fundus images and ZO-1 disorganizations in RPE sheet are indicated by white arrows.
as §1
We delivered Alu RNA (SEQ ID NO: 86) or Alu RNA (SEQ ID NO: 86)+siDDX17 subretinally in WT or NLRC4 KO or NAIP1-6 KO mice and examined for RPE degeneration using fundus photos and ZO-1 staining as described previously.

ASC specks = experiment: SINE RNA induced ASC specks in BMDM, immunofluorescence; type: cell-based, mouse; conditions: BMDMs, transfection vs Mock (FIG. 3A)
Experimental: FIGS. 3A and 3B. SINE RNA-induced ASC oligomerization is dependent on NLRC4 (BMDM). FIG. 3A. Immunofluorescence images of endogenous ASC specks and NLRC4 puncta in BMDMs after transfected with Alu (SEQ ID NO: 86) or B2 (SEQ ID NO: 88) RNA or transfection reagents only (Mock). […] Moreover, NLRC4 proteins assembled as puncta, and co-resided with ASC specks. FIG. 3B. ASC oligomerizations were evaluated in wild-type and Nlrc4^−/− BMDMs through cross-linking and western blot. […] The bands of oligomeric ASC protein were indicated by black arrow.
(§2) The activated NLRC4 inflammasome undergoes oligomerization by assembling into high-molecular mass multiprotein complexes. We first investigated in situ assembling of NLRC4 and apoptosis speck (ASC) like protein complexes in response to SINE RNA treatment of BMDMs. Immunofluorescence studies show increased NLRC4 and ASC specks in SINE RNA-treated BMDMs compared to mock-treated cells (FIG. 3A). To assess NLRC4 inflammasome assembly, WT and NLRC4 KO BMDM cells were treated with Alu RNA (SEQ ID NO: 86). Disuccinimidyl suberate (DSS) cross-linked lysates were resolved using denaturing SDS-PAGE to detect ASC oligomers and cell lysates were resolved using native polyacrylamide gel electrophoresis (NATIVE-PAGE) to detect NLRC4 oligomerization. […] NLRC4/ASC oligomerization is essential for the cleavage of pro-caspase-1 into its active form p20 and IL-1β release.

NLRC4 [2] = experiment: Alu RNA induced NLRC4 protein oligomerization in BMDM, Tris-glycine native PAGE; type: cell-based, mouse; conditions: Alu RNA 100 pmol, indicated time points (FIG. 4)
Experimental: FIG. 4. Alu RNA (SEQ ID NO: 86) induced NLRC4 protein oligomerization. Mouse BMDM was treated with Alu RNA (SEQ ID NO: 86; 100 pmol) at the indicated time points. NLRC4 oligomers were detected by Tris-glycine native PAGE. Loading control show by Actin. […] The bands of oligomeric NLRC4 protein were indicated by black arrow.
as §2

Alu RNA: human SINE RNA, SEQ ID NO: 86
cleavage of caspase-1 precursor (pro) to p20 (caspase-1): induced
formation of NLRC4 oligomers, human RPE cells (NLRC4 [1]): induced the formation of NLRC4 oligomers
RPE degeneration induced by Alu RNA (RPE degeneration): induced RPE degeneration
formation of ASC specks (ASC specks): induced the formation of ASC specks
formation of NLRC4 oligomers, BMDM (NLRC4 [2]): induces the formation of NLRC4 oligomers
